In US20240058352A1, “COMBINATION THERAPIES FOR THE TREATMENT OF CANCER” (Erasca, Inc., priority 2020, published 2024):

Tested on: cell viability
Experiment: Cellular proliferation assay (percent CTG activity, FIG. 23C)
Assay type: cell-based
Settings: agent alone, cell line not stated

`COCOC[C@H]1C[C@H]2COc3c(Sc4cnc(N5CCC6(CC5)CO[C@@H](C)[C@H]6N)c(CO)n4)ccnc3N2C1` [compound of Formula I] was tested, and the “percent CTG activity (cell viability), single agent” value was “minimal effect on cell viability”.
